Test results taken from patent US20260042755A1, “GPR6 INVERSE AGONISTS” (MapLight Therapeutics, Inc., priority 2022, published 2026).

Key:
GPR3 = target: T1, GPR3 (Homo sapiens, UniProt P46089); assay: GPR3 antagonist functional cAMP assay (LANCE Ultra cAMP TR-FRET, CHO cells stably expressing GPR3); type: cell-based
T1 construct: expressed in transfected cells; host or cells: CHO cells
Outline: (§1)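 Suspended cells were plated at 10,000 per well in Krebs-Ringer bicarbonate buffer containing 0.1% BSA and 150 μM Ro 20-1724, then treated with compounds for 45 min at 37 °C. Intracellular cAMP was then quantified by TR-FRET immunoassay.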

GPR6 = target: T2, GPR6 (Homo sapiens, UniProt P46095); assay: GPR6 antagonist functional cAMP assay (LANCE Ultra cAMP TR-FRET, CHO cells stably expressing GPR6); type: cell-based
T2 construct: expressed in transfected cells; host or cells: CHO cells
T2 sequence (P46095 whole entry): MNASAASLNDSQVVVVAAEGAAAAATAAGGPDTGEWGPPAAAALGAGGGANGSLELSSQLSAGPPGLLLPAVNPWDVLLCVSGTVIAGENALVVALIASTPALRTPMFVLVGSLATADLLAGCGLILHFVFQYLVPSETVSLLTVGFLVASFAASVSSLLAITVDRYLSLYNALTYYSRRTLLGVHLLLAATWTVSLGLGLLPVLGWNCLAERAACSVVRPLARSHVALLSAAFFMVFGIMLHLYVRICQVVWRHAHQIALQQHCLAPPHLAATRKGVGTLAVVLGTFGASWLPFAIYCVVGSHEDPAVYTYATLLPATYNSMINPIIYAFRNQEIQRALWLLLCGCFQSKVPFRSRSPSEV
Outline: as §1

[1] = CHO cells stably expressing GPR3, cAMP assay (Example 24)
[2] = CHO cells stably expressing GPR6, cAMP assay (Example 24)
[3] = CHO cells stably expressing GPR3, cAMP assay
[4] = CHO cells stably expressing GPR6, cAMP assay
[5] = procedure as described in Example 24

T1 sequence (P46089 whole entry, species assumed): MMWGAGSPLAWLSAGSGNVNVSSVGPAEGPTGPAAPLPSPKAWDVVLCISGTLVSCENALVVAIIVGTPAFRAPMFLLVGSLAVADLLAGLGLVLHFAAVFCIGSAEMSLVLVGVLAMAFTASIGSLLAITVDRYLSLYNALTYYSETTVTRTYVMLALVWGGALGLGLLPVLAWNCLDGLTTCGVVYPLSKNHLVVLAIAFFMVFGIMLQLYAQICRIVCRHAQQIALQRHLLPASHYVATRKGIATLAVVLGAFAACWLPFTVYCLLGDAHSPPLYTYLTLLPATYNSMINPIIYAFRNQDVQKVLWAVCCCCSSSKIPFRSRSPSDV

Row | IC50 (GPR3; procedure of Example 24) | IC50 (GPR6; procedure of Example 24) | IC50 (GPR3; [1]) | IC50 (GPR6; [2]) | Compound | further results
1 | 1 to 30 µM | < 0.1 µM |  |  | CC(C)(O)C(C)(O)c1cc2nc(-c3cnn(C(F)F)c3)c(N3CCN(Cc4ccc(F)cc4F)CC3)nc2cn1 (centres unmarked) [Compound 633, 2-{2-[1-(difluoromethyl)-4-pyrazolyl]-3-{4-[(2,4-difluorophenyl)methyl]-1-piperazinyl}-1,4,6-triaza-7-naphthyl}-3-methyl-2,3-butanediol] | 
2 |  |  | 1 to 30 µM | 1 to 30 µM | CC(=O)N1CCc2nc(N3CCC(Oc4c(F)cccc4F)CC3)c(-c3cnn(C)c3)nc2C1 [Compound 454, 1-{2-[4-(2,6-difluorophenoxy)piperidin-1-yl]-3-(1-methyl-1H-pyrazol-4-yl)-5H,6H,7H,8H-pyrido[3,4-b]pyrazin-6-yl}ethan-1-one] | 
3 |  |  | 1 to 30 µM | 1 to 30 µM | 1-(3-{6-acetyl-2-[4-(2,4- difluorophenoxy)piperidin- 1-yl]-5H,6H,7H,8H- pyrido[3,4-b]pyrazin-3- yl}-4H,5H,6H,7H- pyrazolo[1,5-a]pyrazin-5- yl)ethan-1-one [Compound 106] | 
4 | 1 to 30 µM | 0.1 to 1 µM |  |  | CC(C)(O)[C@@H](O)c1cc2nc(N3CCC(=Cc4ccc(F)cc4F)CC3)c(-c3cnn(C4CC4)c3)nc2cn1 (single isomer, unassigned) [Compound 769] | 
5 |  |  |  |  | CC(=O)N1CCc2nc(N3CCC(Oc4ccc(F)cc4F)CC3)c(/C=C3/CCOC3)nc2C1 [Compound 494, 1-{2-[4-(2,4-difluorophenoxy)piperidin-1-yl]-3-{[(3Z)-oxolan-3-ylidene]methyl}-5H,6H,7H,8H-pyrido[3,4-b]pyrazin-6-yl}ethan-1-one] | IC50 (GPR3; [3]): 1 to 30 µM; IC50 (GPR6; [4]): 0.1 to 1 µM
6 | 1 to 30 µM | 1 to 30 µM |  |  | CC(=O)N1CCc2nc(N3CCN(Cc4ccc(OC(F)F)cc4F)CC3)c(-c3cnn(C)c3)nc2C1 [Compound 358, 1-[2-(4-{[4-(difluoromethoxy)-2-fluorophenyl]methyl}piperazin-1-yl)-3-(1-methyl-1H-pyrazol-4-yl)-5H,6H,7H,8H-pyrido[3,4-b]pyrazin-6-yl]ethan-1-one] | 
7 |  |  | 1 to 30 µM | < 0.1 µM | O=C(CO)N1CCc2nc(N3CCC(Oc4ccc(F)cc4F)CC3)c(-c3cn[nH]c3)nc2C1 [Compound 179, 1-{2-[4-(2,4-difluorophenoxy)piperidin-1-yl]-3-(1H-pyrazol-4-yl)-5H,6H,7H,8H-pyrido[3,4-b]pyrazin-6-yl}-2-hydroxyethan-1-one] | 
8 |  |  |  |  | CC(=O)N1CCc2nc(N3CCC(Oc4ccc(F)cc4F)CC3)c(C3CCN(C4COC4)C3)nc2C1 (centres unmarked) [Compound 544, 1-{2-[4-(2,4-difluorophenoxy)-1-piperidyl]-3-[1-(3-oxetanyl)-3-pyrrolidinyl]-5,6,7,8-tetrahydro-1,4,6-triaza-6-naphthyl}-1-ethanone] | IC50 (GPR3; [3]): 1 to 30 µM; IC50 (GPR6; [4]): 1 to 30 µM
9 | 1 to 30 µM | 1 to 30 µM |  |  | CC(=O)N1CCc2nc(N3CCC(COc4ccccc4)C3)c(-c3cnn(C)c3)nc2C1 (centres unmarked) [Compound 363, 1-[3-(1-methyl-1H-pyrazol-4-yl)-2-[3-(phenoxymethyl)pyrrolidin-1-yl]-5H,6H,7H,8H-pyrido[3,4-b]pyrazin-6-yl]ethan-1-one] | 
10 |  |  | 1 to 30 µM | 0.1 to 1 µM | CC(=O)N1CCc2nc(N3CCC(Oc4ccc(F)cc4F)CC3)c(-c3cnn(CC(C)C)c3)nc2C1 [Compound 195, 1-{2-[4-(2,4-difluorophenoxy)piperidin-1-yl]-3-[1-(2-methylpropyl)-1H-pyrazol-4-yl]-5H,6H,7H,8H-pyrido[3,4-b]pyrazin-6-yl}ethan-1-one] | 
11 |  |  |  |  | CC(C)(O)C(O)c1cc2nc(-c3cnn(C4CC4)c3)c(N3CCN(Cc4ccc(F)cc4F)CC3)nc2cn1 (single isomer, unassigned) [Compound 601] | IC50 (GPR3; [3]): 1 to 30 µM; IC50 (GPR6; [4]): 0.1 to 1 µM
12 |  |  | 1 to 30 µM | 0.1 to 1 µM | CC(=O)N1CCc2nc(N3CCC(Oc4ccc(F)cc4F)CC3)c(-c3cnn(C4CC4)c3)nc2C1 [Compound 164] | 
13 | 0.1 to 1 µM | < 0.1 µM |  |  | CC(=O)N1CCc2nc(N3CCC(Cc4ccc(F)cc4F)CC3)c(-c3cnn(C)c3)nc2C1 [Compound 375, 1-(2-{4-[(2,4-difluorophenyl)methyl]piperidin-1-yl}-3-(1-methyl-1H-pyrazol-4-yl)-5H,6H,7H,8H-pyrido[3,4-b]pyrazin-6-yl)ethan-1-one] | 
14 |  |  | 1 to 30 µM | 0.1 to 1 µM | COc1ccc(OC2CCN(c3nc4cnncc4nc3-c3cnn(C)c3)CC2)c(F)c1 [Compound 417, 4-(2-fluoro-4-methoxyphenoxy)-1-[3-(1-methyl-1H-pyrazol-4-yl)pyrazino[2,3-d]pyridazin-2-yl]piperidine] | 
15 | 1 to 30 µM | 1 to 30 µM |  |  | CC(=O)N1CCc2nc(N3CCN(Cc4ccc(OC(F)(F)F)cc4)CC3)c(-c3cnn(C)c3)nc2C1 [Compound 359, 1-[3-(1-methyl-1H-pyrazol-4-yl)-2-(4-{[4-(trifluoromethoxy)phenyl]methyl}piperazin-1-yl)-5H,6H,7H,8H-pyrido [3,4-b]pyrazin-6-yl]ethan-1-one] | 
16 |  |  | 1 to 30 µM | 0.1 to 1 µM | CCS(=O)(=O)N1CCc2nc(N3CCC(Oc4ccc(F)cc4F)CC3)c(-c3cnn(C4CCCCO4)c3)nc2C1 (centres unmarked) [Compound 177, 4-(2,4-difluorophenoxy)-1-[6-(ethanesulfonyl)-3-[1-(oxan-2-yl)-1H-pyrazol-4-yl]-5H,6H,7H,8H-pyrido[3,4-b]pyrazin-2-yl]piperidine] | 
17 |  |  | 1 to 30 µM | 1 to 30 µM | Cn1cc(-c2nc3cnc(C(O)C4CC4)cc3nc2N2CCC(Oc3ccc(F)cc3F)CC2)cn1 (centres unmarked) [Compound 250, cyclopropyl(2-(4-(2,4-difluorophenoxy)piperidin-1-yl)-3-(1-methyl-1H-pyrazol-4-yl)pyrido[3,4-b]pyrazin-7-yl)methanol] | 
18 |  |  |  |  | CC(=O)N1CCc2nc(N3CCC(C(=O)c4ccc(F)cc4F)CC3)c(-c3cnn(C)c3)nc2C1 [Compound 541, 1-{2-[4-(2,4-difluorobenzoyl)-1-piperidyl]-3-(1-methyl-4-pyrazolyl)-5,6,7,8-tetrahydro-1,4,6-triaza-6-naphthyl}-1-ethanone] | IC50 (GPR3; [3]): 1 to 30 µM; IC50 (GPR6; [4]): 0.1 to 1 µM
19 | 1 to 30 µM | 1 to 30 µM |  |  | Cn1cc(-c2nc3cnc([C@H]4C[C@@H]4C(=O)O)cc3nc2N2CCC(Oc3ccc(F)cc3F)CC2)cn1 (single isomer, unassigned) [Compound 737] | 
20 |  |  | 1 to 30 µM | 0.1 to 1 µM | O=C(N1CCOCC1)N1CCc2nc(N3CCC(Oc4ccc(F)cc4F)CC3)c(-c3cn[nH]c3)nc2C1 [Compound 120, 4-{2-[4-(2,4-difluorophenoxy)piperidin-1-yl]-3-(1H-pyrazol-4-yl)-5H,6H,7H,8H-pyrido[3,4-b]pyrazine-6-carbonyl}morpholine] | 
21 |  |  |  |  | CC(=O)N1CCc2nc(N3CCC(Oc4ccc(F)cc4F)CC3)c(-c3ccc(=O)[nH]c3)nc2C1 [Compound 51, 5-{6-acetyl-2-[4-(2,4-difluorophenoxy)piperidin-1-yl]-5H,6H,7H,8H-pyrido[3,4-b]pyrazin-3-yl}-1,2-dihydropyridin-2-one] | IC50 (GPR3; [5]): 1 to 30 µM; IC50 (GPR6; [5]): 0.1 to 1 µM
22 |  |  | 1 to 30 µM | 0.1 to 1 µM | CC(=O)N1CCc2nc(N3CCC(Oc4ccc(F)cc4F)CC3)c(-c3cccc(C)n3)nc2C1 [Compound 68, 1-{2-[4-(2,4-difluorophenoxy)piperidin-1-yl]-3-(6-methylpyridin-2-yl)-5H,6H,7H,8H-pyrido[3,4-b]pyrazin-6-yl}ethan-1-one] | 
